10 compounds from patent publication US10660877B2 (BRISTOL-MYERS SQUIBB COMPANY, priority 2016, dated 2020) can be followed below.

The structures appear in SMILES notation. Where two headings read alike, the source gives them in different places.

The target of experiment [1] is human TLR7 (Homo sapiens (Human), UniProt Q9NYK1). Kind of experiment: TLR7 inhibition reporter assay (HEK-Blue cells, SEAP reporter, gardiquimod stimulation). Type of experiment: cell-based. Background: A reporter such as luciferase makes a cellular process visible.
Experiment [2] has as its target human TLR8 (Homo sapiens (Human), UniProt Q9NR97). Kind of experiment: TLR8 inhibition reporter assay (HEK-Blue cells, SEAP reporter, R848 stimulation).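 Note: compounds tested from 0.05 nM to 50 µM, 22 h at 37 °C, SEAP measured with HEK-Blue Detection, inhibition relative to agonist plus DMSO versus a known inhibitor.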
In experiment [3] the target is human TLR9 (Homo sapiens (Human), UniProt Q9NR96). Nature of the experiment: TLR9 inhibition reporter assay (HEK-Blue cells, SEAP reporter, ODN2006 stimulation).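 Note: compounds tested over 0.05 nM to 50 µM, 22 h incubation, inhibition taken as SEAP signal drop from agonist plus DMSO wells toward a known inhibitor control.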
The mark [4] stands for this setting: HEK-Blue cells overexpressing human TLR7, gardiquimod 7.5 μM.
[5] abbreviates: read-out: TLR8 IC50, HEK-Blue cells overexpressing human TLR8, R848 15.9 μM.
Where [6] appears, read: read-out: TLR9 IC50, HEK-Blue cells overexpressing human TLR9, ODN2006 5 nM.
The mark [7] stands for this setting: HEK-Blue cells, gardiquimod 7.5 μM.
The mark [8] stands for this setting: read-out: TLR8 IC50, HEK-Blue cells, R848 15.9 μM.
[9] abbreviates: read-out: TLR9 IC50, HEK-Blue cells, ODN2006 5 nM.

Sequence of human TLR9 (Q9NR96 26-1032): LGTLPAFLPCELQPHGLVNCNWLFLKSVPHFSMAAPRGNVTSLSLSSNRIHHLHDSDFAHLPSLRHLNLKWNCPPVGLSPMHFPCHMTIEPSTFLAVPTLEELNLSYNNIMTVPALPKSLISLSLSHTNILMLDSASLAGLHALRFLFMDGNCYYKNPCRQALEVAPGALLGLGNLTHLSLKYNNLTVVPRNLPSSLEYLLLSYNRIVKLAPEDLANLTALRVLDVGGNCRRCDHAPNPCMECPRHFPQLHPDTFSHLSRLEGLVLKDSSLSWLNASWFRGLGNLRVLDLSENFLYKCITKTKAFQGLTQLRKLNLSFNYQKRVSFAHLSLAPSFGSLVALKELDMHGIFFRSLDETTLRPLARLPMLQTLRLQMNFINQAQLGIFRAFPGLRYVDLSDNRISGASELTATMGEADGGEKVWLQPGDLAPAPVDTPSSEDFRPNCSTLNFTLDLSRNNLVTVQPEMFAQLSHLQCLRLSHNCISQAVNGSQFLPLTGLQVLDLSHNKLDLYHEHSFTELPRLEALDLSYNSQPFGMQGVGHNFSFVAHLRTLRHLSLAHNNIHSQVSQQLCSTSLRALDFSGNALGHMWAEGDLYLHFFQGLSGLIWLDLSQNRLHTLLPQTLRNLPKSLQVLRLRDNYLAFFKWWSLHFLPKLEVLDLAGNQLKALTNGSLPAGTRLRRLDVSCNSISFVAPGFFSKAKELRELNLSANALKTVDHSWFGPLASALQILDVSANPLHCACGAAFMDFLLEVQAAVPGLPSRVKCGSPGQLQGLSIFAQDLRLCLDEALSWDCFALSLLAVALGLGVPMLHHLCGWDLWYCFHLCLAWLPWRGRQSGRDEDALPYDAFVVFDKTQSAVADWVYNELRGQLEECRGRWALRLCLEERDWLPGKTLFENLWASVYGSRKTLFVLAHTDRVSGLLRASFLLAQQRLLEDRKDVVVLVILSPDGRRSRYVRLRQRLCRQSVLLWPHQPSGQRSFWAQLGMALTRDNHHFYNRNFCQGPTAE
Sequence of human TLR8 (Q9NR97 27-1041): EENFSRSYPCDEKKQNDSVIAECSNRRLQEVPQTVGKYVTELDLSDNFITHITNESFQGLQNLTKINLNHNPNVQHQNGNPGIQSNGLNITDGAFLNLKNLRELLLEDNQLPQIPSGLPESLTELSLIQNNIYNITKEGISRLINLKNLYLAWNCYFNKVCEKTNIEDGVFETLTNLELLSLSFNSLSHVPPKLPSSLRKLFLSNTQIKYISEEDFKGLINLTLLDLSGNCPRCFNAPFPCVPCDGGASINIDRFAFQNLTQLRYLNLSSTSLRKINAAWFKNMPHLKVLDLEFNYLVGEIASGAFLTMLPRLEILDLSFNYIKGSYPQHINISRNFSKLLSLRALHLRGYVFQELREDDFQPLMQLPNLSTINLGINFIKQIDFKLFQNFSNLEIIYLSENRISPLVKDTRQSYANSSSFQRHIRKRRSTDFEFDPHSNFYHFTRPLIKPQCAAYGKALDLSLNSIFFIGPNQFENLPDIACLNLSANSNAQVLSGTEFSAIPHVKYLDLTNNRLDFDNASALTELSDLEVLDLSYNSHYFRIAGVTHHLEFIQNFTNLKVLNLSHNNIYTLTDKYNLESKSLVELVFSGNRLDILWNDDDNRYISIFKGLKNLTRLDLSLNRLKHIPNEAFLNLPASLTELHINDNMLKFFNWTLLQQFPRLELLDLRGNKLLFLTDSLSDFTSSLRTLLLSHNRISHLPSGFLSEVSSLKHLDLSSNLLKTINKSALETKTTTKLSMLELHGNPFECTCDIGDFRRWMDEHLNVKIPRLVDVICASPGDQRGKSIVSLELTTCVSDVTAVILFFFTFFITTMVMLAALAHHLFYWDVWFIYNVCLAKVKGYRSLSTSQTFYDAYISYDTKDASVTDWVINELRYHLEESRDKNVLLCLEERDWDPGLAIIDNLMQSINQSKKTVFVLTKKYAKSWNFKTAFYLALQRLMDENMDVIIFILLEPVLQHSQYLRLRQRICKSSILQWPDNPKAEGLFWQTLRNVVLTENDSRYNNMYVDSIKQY
Sequence of human TLR7 (Q9NYK1 27-1049): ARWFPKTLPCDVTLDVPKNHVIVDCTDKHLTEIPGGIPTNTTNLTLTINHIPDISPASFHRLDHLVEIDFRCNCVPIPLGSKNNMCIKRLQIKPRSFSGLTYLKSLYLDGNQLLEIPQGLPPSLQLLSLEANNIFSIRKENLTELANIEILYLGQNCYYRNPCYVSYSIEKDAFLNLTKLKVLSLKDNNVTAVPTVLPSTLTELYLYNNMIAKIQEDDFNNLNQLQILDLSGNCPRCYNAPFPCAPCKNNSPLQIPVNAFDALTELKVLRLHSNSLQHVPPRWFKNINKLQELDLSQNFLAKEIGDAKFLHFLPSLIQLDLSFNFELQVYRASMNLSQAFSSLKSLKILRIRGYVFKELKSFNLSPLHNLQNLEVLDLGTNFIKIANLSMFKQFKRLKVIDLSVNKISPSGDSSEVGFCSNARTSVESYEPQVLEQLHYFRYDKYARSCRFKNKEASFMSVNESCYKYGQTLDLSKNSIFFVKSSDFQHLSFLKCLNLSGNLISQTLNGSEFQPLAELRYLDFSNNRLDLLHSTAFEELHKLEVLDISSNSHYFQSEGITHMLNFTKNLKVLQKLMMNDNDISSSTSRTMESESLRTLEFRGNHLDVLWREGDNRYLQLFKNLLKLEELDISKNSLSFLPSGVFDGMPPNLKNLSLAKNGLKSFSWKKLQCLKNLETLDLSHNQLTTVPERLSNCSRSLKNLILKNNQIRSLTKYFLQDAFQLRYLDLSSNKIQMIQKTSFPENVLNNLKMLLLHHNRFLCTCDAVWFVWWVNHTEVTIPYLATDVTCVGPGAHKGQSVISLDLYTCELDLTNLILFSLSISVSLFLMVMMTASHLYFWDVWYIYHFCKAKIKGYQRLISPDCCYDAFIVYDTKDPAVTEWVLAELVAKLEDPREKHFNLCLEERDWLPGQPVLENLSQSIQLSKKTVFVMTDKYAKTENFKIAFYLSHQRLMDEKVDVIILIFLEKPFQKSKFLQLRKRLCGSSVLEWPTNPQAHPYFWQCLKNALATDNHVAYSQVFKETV

Regarding `Cc1cc(-c2[nH]c3ccc(C4CCN(CC(=O)NCC5(C)CC5)CC4)cc3c2C(C)C)cc(C)n1` [Example 255, 2-(4-(2-(2,6-dimethylpyridin-4-yl)-3-isopropyl-1H-indol-5-yl)piperidin-1-yl)-N-((1-methylcyclopropyl)methyl)acetamide], the IC50 in experiment [1] (setting [4]) was determined as 6.9 nM; in experiment [2] (setting [5]), 20.4 nM; in experiment [3] (setting [6]), 654 nM.

Turning to `Cc1cc(-c2[nH]c3ccc(C4CCN(CC(=O)N(C)C)CC4)cc3c2C(C)C)c(C)cn1` [Example 642, 2-(4-(2-(2,5-dimethylpyridin-4-yl)-3-isopropyl-1H-indol-5-yl)piperidin-1-yl)-N,N-dimethylacetamide], the IC50 in experiment [1] (setting [4]) stood at 16.1 nM; in experiment [2] (setting [5]) it was 5.6 nM; in experiment [3] (setting [6]) it was 4100 nM.

In the case of `Cc1nccc(-c2[nH]c3ccc(C4CCN(C(=O)C5CC(=O)N(C)C5)CC4)cc3c2C(C)C)c1F` (stereo not drawn) [Example 582, 4-(4-(2-(3-fluoro-2-methylpyridin-4-yl)-3-isopropyl-1H-indol-5-yl)piperidine-1-carbonyl)-1-methylpyrrolidin-2-one], the IC50 in experiment [1] (setting [4]) is 30.1 nM; in experiment [2] (setting [5]), 48 nM; in experiment [3] (setting [6]), greater than 50000 nM.

Consider `Cc1cc(-c2[nH]c3ccc(C4CCN(C(=O)C(C)(C)O)CC4)cc3c2C(C)C)cc(C)n1` [Example 173, 1-(4-(2-(2,6-dimethylpyridin-4-yl)-3-isopropyl-1H-indol-5-yl)piperidin-1-yl)-2-hydroxy-2-methylpropan-1-one], for which the IC50 in experiment [1] (setting [4]) was 6.2 nM; in experiment [2] (setting [5]) it was 88.3 nM; in experiment [3] (setting [6]), 43300 nM.

For the compound `Cc1cc(-c2[nH]c3ccc(C4CCN(C(=O)[C@H]5CCC[C@@]5(C)N)CC4)cc3c2C(C)C)ccn1` [Example 569, ((1S,2R)-2-amino-2-methylcyclopentyl)(4-(3-isopropyl-2-(2-methylpyridin-4-yl)-1H-indol-5-yl)piperidin-1-yl)methanone], the results for the IC50 in experiment [1] (setting [4]), in experiment [2] (setting [5]) and in experiment [3] (setting [6]) were 14.4 nM, 15 nM and 912 nM, respectively.

As to `Cc1cc(-c2[nH]c3ccc(C4CCNCC4)cc3c2C(C)C)c(F)cn1` [Example 16, 2-(5-fluoro-2-methylpyridin-4-yl)-3-isopropyl-5-(piperidin-4-yl)-1H-indole], the IC50 in experiment [1] (setting [4]) came out at 1.5 nM; in experiment [2] (setting [5]) it was 1.4 nM; in experiment [3] (setting [6]) it was 2480 nM.

For the compound `Cc1cc(-c2[nH]c3ccc(C4CCN(C(=O)C5CCNCC5)CC4)cc3c2C(C)C)cc(C)n1` [Example 178, (4-(2-(2,6-dimethylpyridin-4-yl)-3-isopropyl-1H-indol-5-yl)piperidin-1-yl)(piperidin-4-yl)methanone], the IC50 in experiment [1] (setting [4]) is 5.4 nM; in experiment [2] (setting [5]), 27.3 nM; in experiment [3] (setting [6]), 549 nM.

As for `Cc1cc(-c2[nH]c3ccc(C4CCN(C(=O)C5(C)CCN(C(C)C)CC5)CC4)cc3c2C(C)C)cc(C)n1` [Example 177, (4-(2-(2,6-dimethylpyridin-4-yl)-3-isopropyl-1H-indol-5-yl)piperidin-1-yl)(1-isopropyl-4-methylpiperidin-4-yl)methanone], the results for the IC50 in experiment [1] (setting [4]), in experiment [2] (setting [5]) and in experiment [3] (setting [6]) were 13.1 nM, 67.2 nM and 937 nM, respectively.

For `CCc1c(-c2ccncc2)[nH]c2ccc(C3CCN(Cc4cnc(Nc5ccccn5)s4)CC3)cc12` [Example 822, 5-((4-(3-ethyl-2-(pyridin-4-yl)-1H-indol-5-yl)piperidin-1-yl)methyl)-N-(pyridin-2-yl)thiazol-2-amine], the IC50 in experiment [1] (setting [7]) stood at 841 nM; in experiment [2] (setting [8]), 12900 nM; in experiment [3] (setting [9]), 1090 nM.

For `Cc1cc(-c2[nH]c3cc(F)c(C4CCN(C5CC(C)OC(C)C5)CC4)cc3c2C(C)C)cc(C)n1` (stereo not drawn) [Example 830, 2-(2,6-dimethylpyridin-4-yl)-5-(1-(2,6-dimethyltetrahydro-2H-pyran-4-yl)piperidin-4-yl)-6-fluoro-3-isopropyl-1H-indole], the IC50 in experiment [1] (setting [7]) is 4.8 nM; in experiment [2] (setting [8]), 17.3 nM; in experiment [3] (setting [9]) it was 229 nM.

What is called IC50 is the midpoint of a concentration-inhibition curve.
